Data set [1] relates to velvetleaf. Briefly: Upland post-emergence treatment test, velvetleaf. The class given is in vivo, velvetleaf (Abutilon theophrasti). The settings on record: post-emergence spray at 3-4 leaf stage, 80 g/ha, 30th day after treatment, greenhouse. From the text:
(§1) 97 Parts by weight of talc (trade name: Zeaklite, supplied by Zeaklite Industry) as a carrier, 1.5 parts by weight of alkylarylsulfonic acid salt (trade name: Neoplex, supplied by Kao-Atlas K.K.) as a surfactant and 1.5 parts by weight of a nonionic and anionic surfactant (trade names Sorpol 800A, supplied by Toho Chemical Co., Ltd.) were uniformly pulverized and mixed to prepare a carrier for a wettable powder.
(§2) 90 Parts by weight of the above carrier for a wettable powder and 10 parts by weight of one of the compounds of the present invention were uniformly pulverized and mixed to obtain herbicides. Further, in Comparative Herbicide Examples, comparative herbicides were also prepared from the following compounds (A) and (B) in the same manner.
(§3) Herbicidal efficacy and phytotoxicity to crops were determined on the basis of the ratio of remaining plant weight to plant weight in non-treated plot=(remaining plant weight in treated plot/plant weight in non-treated-plot)×100. The ratings were applied to the following biological tests.
(§4) Seeds of weeds velvetleaf, redroot pigweed, common ragweed, green foxtail and large crabgrass and seeds of corn were sown in 1/5,000-are Wagner pots filled with upland soil, and covered with upland soil. The seeds were grown in a greenhouse, and at the stage of 3˜4 leaves of these plants, a predetermined amount of the herbicide prepared in the above (1) was suspended in water, and the suspension was uniformly sprayed onto leaf and stalk portions at a rate of 2,000 liters/hectare. Then, the plants were grown in the greenhouse, and on the 30th day after the treatment, the herbicide was evaluated for herbicidal efficacy and phytotoxicity to the corn on the basis of the ratings shown in (2).

In data set [2] the test system is corn. Put plainly: Upland pre-emergence treatment test, phytotoxicity to corn. The settings on record: pre-emergence soil surface spray, 80 g/ha, 20th day after treatment, greenhouse. Format: in vivo.
Description: as §1, §2, §3
(§5) Seeds of weeds such as velvetleaf, common lambsquaters, redroot pigweed, common ragweed, green foxtail and large crabgrass and seeds of corn were sown in 1/5,000-are Wagner pots filled with upland soil, and covered with upland soil. Then, a predetermined amount of the herbicide prepared in the above (1) was suspended in water, and the suspension was uniformly sprayed onto the soil surface at a rate of 2,000 liters/hectare. Then, the seeds were grown in a greenhouse, and on the 20th day after the treatment, the herbicide was evaluated for herbicidal efficacy and phytotoxicity to corn on the basis of the ratings shown in (2).

Data set [3] deals with large crabgrass. Briefly: Upland post-emergence treatment test, large crabgrass. Format: in vivo. The settings on record: post-emergence spray at 3-4 leaf stage, 80 g/ha, 30th day after treatment, greenhouse.
Description: as §1, §2, §3, §4

Data set [4] relates to velvetleaf. Briefly: Upland pre-emergence treatment test, velvetleaf. The conditions noted are these: pre-emergence soil surface spray, 80 g/ha, 20th day after treatment, greenhouse. The class given is in vivo, velvetleaf (Abutilon theophrasti).
Description: as §1, §2, §3, §5

Data set [5] deals with green foxtail. Put plainly: Upland post-emergence treatment test, green foxtail. Format: in vivo, green foxtail (Setaria viridis). The settings on record: post-emergence spray at 3-4 leaf stage, 80 g/ha, 30th day after treatment, greenhouse.
Description: as §1, §2, §3, §4

Data set [6] deals with corn. Put plainly: Upland post-emergence treatment test, phytotoxicity to corn. The class given is in vivo. The conditions noted are these: post-emergence spray at 3-4 leaf stage, 80 g/ha, 30th day after treatment, greenhouse.
Description: as §1, §2, §3, §4

For data set [7], the system named is green foxtail. Briefly: Upland pre-emergence treatment test, green foxtail. The class given is in vivo, green foxtail (Setaria viridis). The settings on record: pre-emergence soil surface spray, 80 g/ha, 20th day after treatment, greenhouse.
Description: as §1, §2, §3, §5

The test system of data set [8] is common ragweed. Briefly: Upland post-emergence treatment test, common ragweed. The class given is in vivo, common ragweed (Ambrosia artemisilfolia). The settings on record: post-emergence spray at 3-4 leaf stage, 80 g/ha, 30th day after treatment, greenhouse.
Description: as §1, §2, §3, §4

Data set [9] relates to redroot pigweed. Put plainly: Upland pre-emergence treatment test, redroot pigweed. The settings on record: pre-emergence soil surface spray, 80 g/ha, 20th day after treatment, greenhouse. Format: in vivo, redroot pigweed (Amaranthus retroflexus).
Description: as §1, §2, §3, §5

Data set [10] has as its system common lambsquaters. Briefly: Upland pre-emergence treatment test, common lambsquaters. The class given is in vivo, common lambsquaters (Chenopodium album). The conditions noted are these: pre-emergence soil surface spray, 80 g/ha, 20th day after treatment, greenhouse.
Description: as §1, §2, §3, §5

Data set [11] concerns large crabgrass. Put plainly: Upland pre-emergence treatment test, large crabgrass. The class given is in vivo. The settings on record: pre-emergence soil surface spray, 80 g/ha, 20th day after treatment, greenhouse.
Description: as §1, §2, §3, §5

In data set [12] the test system is redroot pigweed. Briefly: Upland post-emergence treatment test, redroot pigweed. The class given is in vivo, redroot pigweed (Amaranthus retroflexus). The conditions noted are these: post-emergence spray at 3-4 leaf stage, 80 g/ha, 30th day after treatment, greenhouse.
Description: as §1, §2, §3, §4

Data set [13] relates to common ragweed. Briefly: Upland pre-emergence treatment test, common ragweed. Format: in vivo, common ragweed (Ambrosia artemisilfolia). The settings on record: pre-emergence soil surface spray, 80 g/ha, 20th day after treatment, greenhouse.
Description: as §1, §2, §3, §5
Note: ranges in brackets are in %.

As for `Cc1c(C(=O)c2cnn(C)c2O)ccc2c1C(C)(C)CS2(=O)=O` [Compound 1, 5-(1′-methyl-5′-hydroxypyrazol-4′-yl)carbonyl-3,3,4-trimethyl-2,3-dihydrobenzothiophene-1,1-dioxide], the “Herbicidal Efficacy AA = Velvetleaf” value in [1] and in data set [4] was 5 (0) each time. Besides, the “Phytotoxicity Corn” value in data set [2] and in [6] was “− (100)” in each case. In addition, the “Herbicidal Efficacy FF = Large crabgrass” value in data set [3] and in data set [11] was 5 (0) throughout. Moreover, the “Herbicidal Efficacy EE = Green foxtail” value in [5] and in data set [7] was 5 (0) each time. Also, the “Herbicidal Efficacy DD = Common ragweed” value in data set [8] and in [13] was 5 (0) each time. Besides, the “Herbicidal Efficacy CC = Rough Pigweed” value in [9] is listed as 5 (0). In [10], the “Herbicidal Efficacy BB = Common lambsquaters” value is 5 (0). Further, in data set [12], the “Herbicidal Efficacy CC = Redroot Pigweed” value is on record as 5 (0).
As to `Cc1c(C(=O)c2cnn(C)c2OS(C)(=O)=O)ccc2c1C(C)(C)CS2(=O)=O` [Compound 2], the “Herbicidal Efficacy AA = Velvetleaf” value in [1] and in [4] was 5 (0) each time. Besides, the “Phytotoxicity Corn” value in data set [2] and in data set [6] was “− (100)” each time. The “Herbicidal Efficacy FF = Large crabgrass” value in data set [3] and in data set [11] was 5 (0) throughout. In addition, the “Herbicidal Efficacy EE = Green foxtail” value in data set [5] and in data set [7] was 5 (0) each time. In addition, the “Herbicidal Efficacy DD = Common ragweed” value in data set [8] and in data set [13] was 5 (0) each time. For the same compound, the “Herbicidal Efficacy CC = Rough Pigweed” value in [9] is 5 (0). For the same compound, the “Herbicidal Efficacy BB = Common lambsquaters” value in data set [10] is 5 (0). In addition, the “Herbicidal Efficacy CC = Redroot Pigweed” value in data set [12] is on record as 5 (0).
Turning to `CCS(=O)(=O)Oc1c(C(=O)c2ccc3c(c2C)C(C)(C)CS3(=O)=O)cnn1C` [Compound 3], the “Herbicidal Efficacy AA = Velvetleaf” value in [1] and in data set [4] was 5 (0) throughout. For the same compound, the “Herbicidal Efficacy FF = Large crabgrass” value in data set [3] and in data set [11] was 5 (0) throughout. Besides, the “Herbicidal Efficacy EE = Green foxtail” value in data set [5] and in [7] was 5 (0) in each case. The “Herbicidal Efficacy DD = Common ragweed” value in data set [8] and in data set [13] was 5 (0) each time. Besides, in data set [9], the “Herbicidal Efficacy CC = Rough Pigweed” value is reported as 5 (0). Also, the “Herbicidal Efficacy BB = Common lambsquaters” value in [10] is 5 (0). Besides, the “Herbicidal Efficacy CC = Redroot Pigweed” value in data set [12] is recorded as 5 (0).
For the compound `CCC(=O)Oc1c(C(=O)c2ccc3c(c2C)C(C)(C)CS3(=O)=O)cnn1C` [Compound 30, 5-(1′-methyl-5′-n-propionyloxypyrazol-4′-yl)carbonyl-3,3,4-trimethyl-2,3-dihydrobenzothiophene-1,1-dioxide], the “Phytotoxicity Corn” value in data set [2] is on record as “− (100)”. Besides, the “Herbicidal Efficacy AA = Velvetleaf” value in data set [4] is recorded as 4 (1-20). Moreover, the “Herbicidal Efficacy EE = Green foxtail” value in data set [7] is 5 (0). The “Herbicidal Efficacy CC = Rough Pigweed” value in data set [9] is listed as 5 (0). For the same compound, in data set [10], the “Herbicidal Efficacy BB = Common lambsquaters” value is reported as 5 (0). Besides, the “Herbicidal Efficacy FF = Large crabgrass” value in data set [11] is listed as 5 (0). Also, the “Herbicidal Efficacy DD = Common ragweed” value in data set [13] is listed as 5 (0).

The record behind these values is US20040162221A1, “Pyrazole derivatives and herbicides containing the same” (IDEMITSU KOSAN CO., LTD., priority 1998, published 2004).
